From patent US20100093609A1, “PRODRUGS OF TRICIRIBINE AND TRICIRIBINE PHOSPHATE” (priority 2007, published 2010)

Experiments:
in vitro = conditions: human
[1] = Stability in 100 mM phosphate buffer, pH 6.5; conditions: pH 6.5, 37° C., 0-3 hours, LC/MS/MS
[2] = Systemic plasma concentrations after duodenal administration to rats; conditions: rat, duodenal administration of 3 mg

- IC50 at 8 days (in vitro): 32 µM
- stability in buffer (in words) [1]: stable
- intestinal absorption / plasma levels (in words) [2]: very little intestinal absorption
- peak plasma levels ([2]; FIGS. 5 and 6): about 1.25 ng/ml
- AUC0-4 hr of the administered compound (parent or intact prodrug) ([2]; plasma over 4 hours): 4.4 ± 0.9 (ng/ml)/hr
Structure (SMILES): CN1N=C(N)c2cn([C@@H]3O[C@H](COP(=O)(O)O)[C@@H](O)[C@H]3O)c3ncnc1c23 [TCNP, 6-amino-4-methyl-8-(beta.-D-ribofuranosyl)pyrrolo[4,3,2-de]pyrimido[4,5-c]pyridazine 5′ phosphate]
- cytotoxic effects (in words) (HFF cells): more toxic than TCN
